According to patent US9249159B2, “Composition for treating hepatitis C virus, regulating phosphorylation of replicase” (Industry-Academic Cooperation Foundation, Yonsei University, priority 2011, dated 2016):

How the values were obtained:
R-1 cell = assay: Cytotoxicity / cell viability in R-1 cell; type: cell-based, human; conditions: R-1 cell versus parental Huh7, 72 hours
Experimental: Cytotoxicity of 17-DMAG was measured by using a reagent MTS [3-(4,5-dimethylthiazol-2-yl)-5-(3-carboxylmethoxyphenyl)-2-(4-sulfophenyl)-2H-tetrazolium] (Promega, Madison, Wis., USA) according to the protocols of the manufacturer. The experiment was carried out as follows.
Huh7 or R-1 cells (2×10^4 cell/well) were seeded in a 96-well plate and treated with 17-DMAG at different concentrations for 72 hours. Then, the culture medium was removed and a MTS substrate dissolved in the culture medium containing 5% FBS was added to each well of the plate. The cells were cultured at 37° C. for 1 hour, and absorbance at 490 nm was read in a 96-well micro plate automatic reading system using GloMax-Multi detection system (Promega).
An experiment was carried out to check whether or not 17-DMAG inhibited virus RNA replication in an R-1 cell in which autonomous replication of a genotype 1b HCV subgenomic replicon RNA was maintained. Before antiviral activity of 17-DMAG was evaluated, an MTS assay was carried out to evaluate whether or not the drug interfered with cell viability. To be specific, the R-1 cell loaded with a selective HCV subgenomic replicon (upper diagram) and its parental cell line Huh7 were treated with 17-DMAG at a certain concentration for 72 hours, and cell viability was evaluated by the MTS assay.

HCV NS5B = assay: NS5B phosphorylation in Huh7TR-NS cell (anti-p-Ser immunoprecipitation, anti-NS5B immunoblot); type: cell-based, hepatitis C virus; conditions: 17-DMAG 50 nM or HA1077 20 μM, 48 hours
Experimental: The human hepatoma stable cell lines Huh7TR-4 and Huh7TR-NS [17], which express the tetracycline repressor and the HCV NS proteins (NS3-NS5) in a tetracycline-inducible manner, respectively, were maintained in the presence of blasticidin S (10 μg/mlL and Zeocine (100 μg/mL). NS protein expression in Huh7TR-NS was induced by addition of 1 μg/mL tetracycline for 24 h. The Huh7 cell-derived cell line R-1, supporting stable, autonomous replication of genotype 1b HCV subgenomic replicon RNA, was described previously. 17-DMAG, the PRK2 inhibitor, HA1077, and the inhibitor of phosphatidylinositol 3-kinase (PI3K), LY294002, were obtained from Sigma-Aldrich (St. Louis, Mo., USA) and Calbiochem Inc. (La Jolla, Calif., USA), and Biomol (Plymouth Meeting, Pa., USA), respectively. IFN-α was purchased from Sigma-Aldrich (1-4276).
For co-immunoprecipitation experiment, the cells were resuspended in lysis buffer A (100 mM Tris-HCl, pH 8.0, 150 mM NaCl, 1% Triton X-100, 10 mM NaF, 1 mM Na3VO4, 17.5 mM β-glycerophosphate) supplemented with an EDTA-free protease inhibitor cocktail (Roche Applied Science, Indianapolis, Ind., USA) and incubated on ice for 30 min. […]
Then, treatment with 17-DMAG (50 nM) or HA1077 (20 μM), a PRK2 inhibitor, was carried out for 48 hours. […] A case without treatment with an inhibitor was expressed as (−).

PRK2 = target: T1, PRK2 (Homo sapiens, UniProt Q16513); assay: PRK2 phosphorylation (Thr816) and PRK2 level in R-1 cells by Western blot; type: cell-based; conditions: R-1 cell, 72 hours
T1 construct: endogenous in cells; host or cells: R-1 (Huh7-derived HCV replicon cells) and Huh7
Experimental: After the R-1 cell line was treated with the PRK2 inhibitor at a final concentration of 10 or 20 μM for 48 hours, phosphorylation or not of Thr^816 residue essential for activity of PRK2 was analyzed by Western blot using a phospho-PRK2 antibody to measure an expression level of phosphorylated PRK2. Immunoblotting using an anti-α-tubulin antibody was carried out to check whether or not the same amount of protein was loaded.
Total cell lysates from cells treated with inhibitors or IFN-α by using antibodies to PDK1, p-PDK1 (S241), PRK2, and p-PRK2 (T816) (products of Cell Signaling Technology, Inc., Beverly, Mass., USA) was used for immunoblotting. In order to detect PKC isoforms α, β, and γ, a polyclonal antibody to a consensus sequence present in three PKC (protein kinase C) isoforms α, β and γ (anti-pan-PKC; Zymed Laboratories, San Francisco, Calif., USA) was used. An anti-α-tubulin antibody (Oncogene Research Products, Cambridge, Mass., USA) was carried out in immunoblotting for checking whether or not the same amount of protein was loaded.
The levels of the proteins were measured by densitometric analysis of immunoblot, and the phosphorylated amounts and relative intensities calculated with respect to PDK1 and PDK2 were converted with respect to α-tubulin signals and then quantitated. As a result of three independent experiments showing similar results, a representative blot picture was illustrated.
Then, in order to check whether or not IFN-α affected a PDK1-PRK2 signaling pathway, the R-1 cell was treated with 100 IU/ml of IFN-α hourly for 6 hours. SDS-PAGE was carried out to the cell lysates, and immunoblotting was carried out. The immunoblotting with anti-α-tubulin antibody was used as an internal control for loading. A representative result from one of the three independent experiments showing a similar result was illustrated.

[1] = system: genotype 2a HCV (JFH1)-infected Huh7 cells; assay: HCV RNA level in Huh7 cells infected with HCV (JFH1); type: cell-based, hepatitis C virus genotype 2a; conditions: JFH1-infected Huh7 cell, 500 nM, 72 hours
Experimental: To do so, after the two cell lines were treated with the compound #17 at higher concentrations (60 and 100 μM) than 20 μM for 48 hours, an HCV RNA genome level was checked by a real-time RT-PCR analysis. A value was a mean±standard deviation (SD) of three independent measurements. HCV RNA titer was quantified by real-time PCR analysis. Three independent experiments were performed in triplicate.
Full-length, infectious HCV RNA of the genotype 2a HCV clone JFH1 was prepared by in vitro transcription using the MEGAscript T7 kit (Ambion, Austin, Tex., USA) and electroporated into Huh7 cells as described previously. Briefly, at 72 h post electroporation, culture medium was collected, cleared by low-speed centrifugation, and passed through a 0.45-μm filter (Millipore, Billerica, Mass., USA) before being used for infection of Huh7 cells. Cells were infected with HCV at a multiplicity of infection of 0.3 by adsorption for 3 h with periodic rocking, then washed three times with phosphate-buffered saline (PBS) and maintained in complete DMEM. […]
Total RNA was extracted from R-1 or HCV (JFH1)-infected cells using TRIzol LS reagent (Invitrogen, Carlsbad, Calif., USA) and purified according to the manufacturer's instructions. HCV RNA levels were quantified by RT-PCR using a primer pair and TaqMan probe targeting a region within the HCV 5′-UTR as described previously. […] Assays were performed using the DyNAmo Probe 2-step qRT-PCR Kit (Finnzymes, Espoo, Finland) and a CHROMO4 continuous fluorescence detector (Bio-Rad, Hercules, Calif., USA), according to the manufacturer's instructions.
In order to analyze whether or not 17-DMAG can inhibit replication in a cell infected with HCV, an experiment was carried out with the genotype 2a HCV infectious clone JFH1, which produces infectious virions in Huh7 or Huh7-derived cell lines. […] After 72 hours, total cellular RNA was extracted and HCV remaining in the infected cell was analyzed by quantitative RT-PCR.

T1 sequence (Q16513 whole entry): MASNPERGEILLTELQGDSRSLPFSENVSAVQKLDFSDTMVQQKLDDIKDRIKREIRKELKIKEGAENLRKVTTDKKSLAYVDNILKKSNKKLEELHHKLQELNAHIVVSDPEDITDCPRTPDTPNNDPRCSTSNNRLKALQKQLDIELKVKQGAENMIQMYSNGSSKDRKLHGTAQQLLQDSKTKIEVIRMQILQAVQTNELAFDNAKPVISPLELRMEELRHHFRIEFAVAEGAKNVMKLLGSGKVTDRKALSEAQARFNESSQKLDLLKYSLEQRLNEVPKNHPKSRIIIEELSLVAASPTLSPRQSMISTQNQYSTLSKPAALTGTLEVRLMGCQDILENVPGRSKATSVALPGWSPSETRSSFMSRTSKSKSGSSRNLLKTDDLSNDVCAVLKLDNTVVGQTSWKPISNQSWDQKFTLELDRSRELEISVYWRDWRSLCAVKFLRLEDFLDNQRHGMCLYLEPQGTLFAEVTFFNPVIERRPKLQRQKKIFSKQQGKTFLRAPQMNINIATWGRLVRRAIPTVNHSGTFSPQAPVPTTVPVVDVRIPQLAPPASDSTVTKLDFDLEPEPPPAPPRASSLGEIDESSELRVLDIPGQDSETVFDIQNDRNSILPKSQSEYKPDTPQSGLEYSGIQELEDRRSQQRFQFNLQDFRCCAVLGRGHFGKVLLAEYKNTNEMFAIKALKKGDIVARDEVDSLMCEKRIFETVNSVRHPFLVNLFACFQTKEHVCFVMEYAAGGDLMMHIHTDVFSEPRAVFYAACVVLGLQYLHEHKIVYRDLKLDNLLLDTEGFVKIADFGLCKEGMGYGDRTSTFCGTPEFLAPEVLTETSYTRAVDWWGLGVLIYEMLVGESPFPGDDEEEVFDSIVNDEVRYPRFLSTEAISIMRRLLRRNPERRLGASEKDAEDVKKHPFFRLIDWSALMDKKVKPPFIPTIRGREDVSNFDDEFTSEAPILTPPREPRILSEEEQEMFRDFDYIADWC

SMILES: CO[C@H]1/C=C\C=C(/C)C(=O)NC2=CC(=O)C(NCCN(C)C)=C(C[C@@H](C)C[C@H](OC)[C@H](O)[C@@H](C)/C=C(\C)[C@@H]1OC(N)=O)C2=O [17-DMAG, 17-(dimethylaminoethylamino)-17-demethoxygeldanamycin]
- sensitivity of cell viability (MTS assay) (R-1 cell): more sensitive to 17-DMAG than the parental cell line Huh7
- NS5B phosphorylation (HCV NS5B): inhibited NS5B phosphorylation
- stability of PRK2 (PRK2; 50 nM): not affected
- level of p-PRK2 (PRK2; 10 or 50 nM): decreased
- decrease of level of viral RNA [1]: about 87%
